# Results taken from patent US3955959A, “Herbicide for use in transplanted rice” (priority 1974, dated 1976).
# Legend:
# [1] = system: Sedges: Cd, Ci, Fl (Cyperus difformis, Cyperus iria, Fimbristylis littoralis); assay: Example 4 field test on ordinary rice, weed control, Munoz, Philippines; format: in vivo; details: obs. 36 DAT
# Excerpt: (§1) Treatments were replicated four times.
# [2] = system: Grass: Ec and Ecol (Echinochloa crusgalli, Echinochloa colonum); assay: as above; format: in vivo; details: obs. 36 DAT
# Excerpt: as §1
# [3] = system: transplanted rice (ordinary and infant seedlings); assay: Example 5 field test, rice yield; format: in vivo; details: 1.5 kg/ha, 7 DAT
# Protocol: (§2) In the tests described in the tables below, the herbicides were formulated and used in granular form in conventional manner. […] The commercial herbicide used was a granular product having 5% active ingredient.
# (§3) In the field tests of the herbicide of this invention with transplanted rice, the rice seedlings were grown in conventional manner, by seeding the rice in a typical seedbed of sandy loam to clay soil of the country wherein the test was conducted. For laboratory and greenhouse work the seedlings were obtained by seeding rice in a mixture of soil, e.g., Ray silt loam, and peat in wood flats. For purposes of testing the herbicides on younger rice seedlings (infant or Dapog) the rice was usually allowed to grow for 6-15 days before lifting for transplanting. Older (ordinary) rice plants were usually grown for a period of about 2-3 weeks, or as much as about 7 weeks before lifting. Since the period of growth is dependent upon climatic conditions, a better measure of when to transplant the rice seedling is the leaf stage of growth; for infant or Dapog rice the seedling is lifted at the 1.5-2 leaf stage of growth, and for ordinary seedlings at the 2.5-5 leaf stage. The seedlings were then transplanted to the test plots for evaluation of the herbicide for injury against weed species present with the transplanted rice. The herbicides were then applied to the growth medium of the weeds and transplant rice, either preemergent or postemergent with respect to the weeds and postemergent with respect to the transplanted rice. Application times are designated in the tables as "DAT", meaning "days after transplant". Application rates given in the tables refer to the amount of active ingredient used.
# The rice seedlings were grown to the 1.7 leaf stage for infant seedlings and to the 5.5 leaf stage for ordinary seedlings. Two days after puddling the soil in which the seedlings were to be transplanted, both infant and ordinary seedlings were transplanted into plots 8.5 m^2.
# The weed symbol "Obw" represents "other broadleaf weeds" of unspecified identity. Results presented in Table 5 represent the average of 2 replications.
# Dapog transplanted rice = assay: Example 3 field test, crop injury; details: obs. 42 DAT
# Protocol: as §2, §3
# Eleven (11) day-old Dapog seedlings were transplanted and treated at 5 DAT and 14 DAT with Herbicides A and B. The plots were overseeded with Echinochloa crusgalli seeds at 2 kgs/ha prior to transplanting. Treatments were replicated four times.
# transplanted rice [4] = assay: Example 2 field test, rice yield; format: in vivo, rice (Tainan No. 5, japonica)
# Protocol: as §2, §3
# Rice seedlings (ordinary) of Tainan No. 5 variety (japonica) were transplanted at 19 days of growth. Granular formulations of Herbicides A and B were applied at the 1 leaf stage of grass weed (4 DAT) and 2.5 leaf stage of grass weed (10 DAT). Observations were made at 63 DAT and results reported in Table 2 as an average of 3 replications.
# [5] = system: Sedges: Cd, Ci, Fl (Cyperus difformis, Cyperus iria, Fimbristylis littoralis); assay: Example 3 field test on Dapog rice, weed control, Munoz, Philippines; format: in vivo; details: obs. 42 DAT
# Excerpt: as §1
# transplanted rice [6] = assay: Example 1 field test, rice injury; format: in vivo, rice (Watanabe variety)
# Excerpt: In the field test 48 day-old seedlings (Watanabe variety) were transplanted to plots 2.5 × 6 m. seeded with the weed seeds indicated in Table 1. At 5 and 10 DAT periods, the herbicides were applied to the plants (now at the 1.2 and 2.0 leaf stage, respectively, of grass weed) at the indicated rate in kilograms per hectare (kg/ha). The weed control and rice injury results for 3 replications are reported in percentages as of the indicated times of observation. The percentages given in the "Perennials" column are based on the weight of the weeds at 63 DAT, i.e., 42 gms/3.6 m^2 for the weedy check.
# [7] = system: weeds in upland direct-seeded rice; assay: Example 7 overall; format: in vivo; details: particular spectrum of weeds
# Protocol: In a further comparative study of the preemergence activity of Herbicides A and B, a variety of weeds and upland direct-seeded rice were tested under greenhouse conditions. The present invention is not concerned with the use of Herbicide A in direct-seeded rice. The primary purpose of the experimental work in this example is to compare relative herbicidal activity of Herbicides A and B against the weeds shown in Table 7; most of these weeds were not available for tests with transplanted rice. Although the relative selectivity of these herbicides in upland rice is also evident, that aspect of the tests is more or less incidental to the purpose of this example.
# In this example, rice seeds and seeds of the weeds shown in Table 7 were sown in Ray silt loam soil at a depth of 0.5 inch (1.27 cm) in containers for the soil in a greenhouse. Herbicides A and B were applied to the surface of the soil at a spray volume equivalent to 20 gals/acre (187.1 liters/hectare), followed by 0.5 in (1.27 cm) of overhead irrigation. Temperature and relative humidity in the greenhouse were on the order of 85°F (29°C) and 75%, respectively. Observations were made at 21-28 days after seeding. […]
smiles,measurement,setting,value
"CCCCOCN(C(=O)CCl)c1c(CC)cccc1CC [Herbicide B, n-(butoxymethyl)-2',6'-diethyl-2-chloroacetanilide, reference compound]","% Weed control, Sedges (Cd, Ci, Fl)","[1]; 5 DAT, 1.0 kg/ha",100%
same,"% Weed control, Sedges (Cd, Ci, Fl)","[1]; 5 DAT, 1.5 kg/ha",100%
same,"% Weed control, Sedges (Cd, Ci, Fl)","[1]; 5 DAT, 3.0 kg/ha",100%
same,"% Weed control, Sedges (Cd, Ci, Fl)","[1]; 14 DAT, 1.0 kg/ha",0%
same,"% Weed control, Sedges (Cd, Ci, Fl)","[1]; 14 DAT, 1.5 kg/ha",0%
same,"% Weed control, Sedges (Cd, Ci, Fl)","[1]; 14 DAT, 3.0 kg/ha",50%
same,"% Weed control, Grass (Ec and Ecol)","[2]; 5 DAT, 1.0 kg/ha",100%
same,"% Weed control, Grass (Ec and Ecol)","[2]; 5 DAT, 1.5 kg/ha",100%
same,"% Weed control, Grass (Ec and Ecol)","[2]; 5 DAT, 3.0 kg/ha",100%
same,"% Weed control, Grass (Ec and Ecol)","[2]; 14 DAT, 1.0 kg/ha",0%
same,"% Weed control, Grass (Ec and Ecol)","[2]; 14 DAT, 1.5 kg/ha",0%
same,"% Weed control, Grass (Ec and Ecol)","[2]; 14 DAT, 3.0 kg/ha",50%
same,Yield % of H.W.C.,[3]; infant seedlings,99%
same,Yield % of H.W.C.,[3]; ordinary seedlings,92%
same,Crop Injury (%),"Dapog transplanted rice; 5 DAT, 1.0 kg/ha",0%
same,Crop Injury (%),"Dapog transplanted rice; 5 DAT, 1.5 kg/ha",0%
same,Crop Injury (%),"Dapog transplanted rice; 5 DAT, 3.0 kg/ha",0%
same,Crop Injury (%),"Dapog transplanted rice; 14 DAT, 1.0 kg/ha",0%
same,Crop Injury (%),"Dapog transplanted rice; 14 DAT, 1.5 kg/ha",0%
same,Crop Injury (%),"Dapog transplanted rice; 14 DAT, 3.0 kg/ha",0%
same,Yield (% of H.W. Check),"transplanted rice [4]; 4 DAT, 1.0 kg/ha",110%
same,Yield (% of H.W. Check),"transplanted rice [4]; 4 DAT, 1.5 kg/ha",103%
same,Yield (% of H.W. Check),"transplanted rice [4]; 4 DAT, 3.0 kg/ha",99%
same,Yield (% of H.W. Check),"transplanted rice [4]; 10 DAT, 1.0 kg/ha",97%
same,Yield (% of H.W. Check),"transplanted rice [4]; 10 DAT, 1.5 kg/ha",98%
same,Yield (% of H.W. Check),"transplanted rice [4]; 10 DAT, 3.0 kg/ha",99%
same,"% Weed control, Sedges (Cd, Ci, Fl)","[5]; 5 DAT, 1.0 kg/ha",100%
same,"% Weed control, Sedges (Cd, Ci, Fl)","[5]; 5 DAT, 1.5 kg/ha",100%
same,"% Weed control, Sedges (Cd, Ci, Fl)","[5]; 5 DAT, 3.0 kg/ha",100%
same,"% Weed control, Sedges (Cd, Ci, Fl)","[5]; 14 DAT, 1.0 kg/ha",0%
same,"% Weed control, Sedges (Cd, Ci, Fl)","[5]; 14 DAT, 1.5 kg/ha",0%
same,"% Weed control, Sedges (Cd, Ci, Fl)","[5]; 14 DAT, 3.0 kg/ha",70%
same,% Rice Injury,"transplanted rice [6]; 5 DAT, 1.0 kg/ha, obs. 21 DAT",0%
same,% Rice Injury,"transplanted rice [6]; 5 DAT, 1.0 kg/ha, obs. 42 DAT",0%
same,% Rice Injury,"transplanted rice [6]; 5 DAT, 1.5 kg/ha, obs. 21 DAT",0%
same,% Rice Injury,"transplanted rice [6]; 5 DAT, 1.5 kg/ha, obs. 42 DAT",0%
same,% Rice Injury,"transplanted rice [6]; 5 DAT, 3.0 kg/ha, obs. 21 DAT",5%
same,% Rice Injury,"transplanted rice [6]; 5 DAT, 3.0 kg/ha, obs. 42 DAT",0%
same,% Rice Injury,"transplanted rice [6]; 10 DAT, 1.0 kg/ha, obs. 21 DAT",0%
same,% Rice Injury,"transplanted rice [6]; 10 DAT, 1.0 kg/ha, obs. 42 DAT",0%
same,% Rice Injury,"transplanted rice [6]; 10 DAT, 1.5 kg/ha, obs. 21 DAT",0%
same,% Rice Injury,"transplanted rice [6]; 10 DAT, 1.5 kg/ha, obs. 42 DAT",0%
same,% Rice Injury,"transplanted rice [6]; 10 DAT, 3.0 kg/ha, obs. 21 DAT",0%
same,% Rice Injury,"transplanted rice [6]; 10 DAT, 3.0 kg/ha, obs. 42 DAT",0%
same,"selectivity, A vs B, upland direct-seeded rice",[7],slightly more selective
